Assay results taken from patent publication US20240168011A1, “CLEARANCE ASSAY” (Akershus Universitetssykehus HF, priority 2021, published 2024).
Entries after “also recorded” stand apart in the source; their conditions may differ. Structures can show the parent of a compound that is named as a salt.

What was measured:
THP-1 cells [1] = assay: Chase assay of Aβ catabolism, Simoa immunoassays of intracellular Aβ fragments (Example 1); assay type: cell-based; conditions: TPA-differentiated THP-1; 100 ng/ml Abeta40 2 h, 4 hours chase; 100 nM Bafilomycin, 100 nM Rapamycin, 100 μM Neprilysin inhibitor, 200 nM BACE inhibitor, 1 μM IDE inhibitor; vs 4 hour chase
Protocol: To adjust for inter-day variations in measurements for the different experiments, values were normalized using the baseline condition as the reference for each day of experiments using the following formula: [(biomarker value/mean biomarker value)[…])].
Statistical analyses were carried out with one-way ANOVA models. If a significant (p<0.05) omnibus (F-test) ANOVA was shown, planned comparisons according to our hypotheses were carried out. This included a main comparison between the reference condition and experimental conditions (endolysosomal inhibitors and autophagosome activators). The Figures thus indicate within each bar the percentage change, and associated statistical significance (p-value) or lack thereof (n.s.), as compared to the reference condition (100%) (i.e. the main comparison). For some experiments (FIGS. 4, 5 and 7), additional comparisons between experimental conditions were conducted in accordance with hypotheses. Significant between-group differences for these comparisons are shown with horizontal bars with the associated statistical significance (p-value), or lack thereof (n.s.).
Aβ catabolism and detoxification, and the effect of example inhibitors and activators thereon, was measured using antibodies specific for intracellular Aβ mid-domain peptides, i.e. catabolism products. In particular, inhibition of endolysosomal activity is expected to reduce degradation and increase concentrations of species, here studied with Bafilomycin, which blocks V-ATPase and inhibits acidification of endolysosomes, thereby inhibiting endolysosomal enzyme activities. Addition of inhibitors of endolysosomal enzymes Neprilysin (Saido 2013) and Insulin Degradation Enzymes are expected to have similar effects (Jha, Jha et al. 2015, Sikanyika, Parkington et al. 2019), whereas BACE1 is involved both in Aβ generation and […] (Vassar, Kovacs et al. 2009, Liebsch, Kulic et al. 2019). Enhancing macroautophagy using Rapamycin is also expected to increase Aβ catabolism (FIG. 3; Spilman, Podlutskaya et al. 2010, Malik, Maddison et al. 2019)
Immunoassays were developed on the single molecule array (Simoa) platform (Quanterix, US) using proprietary antibodies directed against different epitopes of the amyloid β protein (Shown in FIG. 1; SEQ ID NOs: 3-5). The Aβx-40/42 assay used a 40-42 end-specific sheep monoclonal AB.4D7 (Bioventix plc, UK) as the capture antibody, and a sheep monoclonal AB.2A9 (Bioventix plc, UK) with a mid-domain epitope (SEQ ID NO: 7) as the detection antibody. The 40-42 end-specific antibody was raised against the epitope shown in SEQ ID NO: 5, and binds the C-terminal of both Aβ1-42 (SEQ ID NO: 1) and Aβ1-40 (SEQ ID NO: 2). The Aβ20-x assay used the same AB.4D7 antibody as the capture antibody, and the highly specific 20-cut point sheep monoclonal antibody, ABNT.2B8 (Bioventix plc, UK) as the detection antibody. For the Aβx-34 assay, AB.2A9 was used as the capture antibody and an anti-complex antibody, BVX.33420/H3 (Bioventix plc, UK), which preferentially binds a fragment having the C-terminal of SEQ ID NO: 6, was used as the detection antibody, ensuring mid-domain x-34 specificity.
Chase Assays THP-1 cells were differentiated toward macrophages by a 48 hour treatment with 100 nM TPA (12-O-tetradecanoylphorbol-13-acetate). Media was replaced with fresh medium with or without modulators of the autophagic/endolysosomal system: 100 nM Bafilomycin, 100 nM Rapamycin, 100 μM Neprilysin inhibitor, 200 nM BACE inhibitor, or 1 μM IDE inhibitor, or a triple combination of the enzyme inhibitors Neprilysin inhibitor, BACE inhibitor and IDE inhibitor. The cells were incubated for 1 hour before adding 100 ng/ml Abeta40 to the cells. Cells were further incubated for 2 hours before removing Abeta40 and a continued 4 hours chase with or without the respective modulators. Cells were washed before adding lysis buffer. Lysates were kept at −80° C. until analysis.

THP-1 cells [2] = assay: Chase assay with proposed AD interventions, Mesoscale immunoassay (Example 2); assay type: cell-based; conditions: 16 hours DHA (100 μM) and/or NS1738 (10 μM); Aβ1-40 500 ng/ml; reference Aβ40 4 hour chase
Protocol: An immunoassay was set up on a Mesoscale platform using the same antibodies as, and a similar method to, Example 1. Cells were incubated overnight (16 hours) with DHA (100 μM) and/or NS1738 (10 μM). Aβ1-40 was added at a concentration of 500 ng/ml, and removed from the media before the 4 hour chase. DHA and NS1738 were removed from the media during the 4 hour chase.

[3] = tested on: cells in an innate immune model system; conditions: DHA treatment of cells in an innate immune model system; cited from earlier work
THP-1 cells [4] = assay: Clearance assay on a background of LPS inflammatory activation, Mesoscale immunoassay (Example 4); assay type: cell-based; conditions: with LPS, 16 h; Aβ1-40 2 h; 4 h chase; reference LPS+Aβ40 4 hour chase
Protocol: The immunoassay was set up on a Mesoscale platform. THP-1 cells were differentiated towards phagocytic monocytes/macrophages during a 48 h incubation with 12-O-tetra-decanoylphorbol-13-acetate (TPA). Media were replaced with fresh medium containing LPS alone or LPS together with DHA or NS1738 or combination of DHA and NS1738, for an overnight incubation (16 h). The marker protein (Aβ1-40) was added to the cells for an additional 2 h incubation. Media were replaced with fresh medium without any additives and the cells were further incubated for a 4 h chase period. The cells were kept cold, media removed, and the cells washed with cold PBS. Lysis buffer containing protease inhibitors and sodium dodecyl sulfate (SDS) was added to the cells. After lysis, the cells were scraped and transferred to tubes and kept in a −80° C. freezer. Lysates were sonicated and treated with DNase before analysis on the degradation assays.

[5] = molecular target: Aβ20-34, mid-domain fragment of Aβ1-42 and Aβ1-40; assay: monocyte lysate pool + 12 pg/ml Aβ20-34 pre-incubated with the antibody, then Simoa Aβx-34 immunoassay (untreated 13.8 pg/ml)
[6] = molecular target: Aβ20-34, mid-domain fragment of Aβ1-42 and Aβ1-40; assay: monocyte lysate pool + 12 pg/ml Aβ20-34 pre-incubated with the antibody, then Simoa Aβx-34 immunoassay

Row | Compound | intracellular Aβ20-x level (THP-1 cells [1]) | intracellular Aβx-34 level (THP-1 cells [1]) | intracellular Aβx-40/42 level (THP-1 cells [1]) | also measured
1 | NC1=N[C@@]2(c3cc(NC(=O)c4ccc(F)cn4)ccc3F)COC[C@H]2CS1 [BACE inhibitor, LY2886721] | increases | no effect | no effect | –
2 | CO/C1=C\C(C)=C\[C@@H](C)[C@@H](O)[C@@H](C)C/C(C)=C/C=C/[C@H](OC)[C@@H]([C@@H](C)[C@@H](O)[C@H](C)[C@@]2(O)C[C@@H](O)[C@H](C)[C@@H](C(C)C)O2)OC1=O [Bafilomycin, Bafilomycin A1] | significantly increases | non-significantly increases | significantly increases | –
3 | NCCCC[C@@H]1NC(=O)/C=C/C(=O)N[C@H](C(N)=O)CCCCNC(=O)[C@@H](Cc2ccc(C(=O)c3ccccc3)cc2)NC(=O)[C@H](CC2CCCCC2)NC1=O [IDE inhibitor, 6bK] | increases | no effect | no effect | –
4 | CC/C=C\C/C=C\C/C=C\C/C=C\C/C=C\C/C=C\CCC(=O)O [DHA, (4Z, 7Z, 10Z, 13Z, 16Z, 19Z)-4,7, 10, 13, 16, 19-docosahexaenoic acid] | – | – | – | intracellular Aβx-34 level (THP-1 cells [2]): reduces the amount; also recorded: decreased; Aβ1-42 phagocytosis and degradation [3]: increase; intracellular Aβ20-x level (THP-1 cells [4]): continue to have an effect; intracellular Aβx-34 level (THP-1 cells [4]): continue to have an effect; intracellular Aβx-40 level (THP-1 cells [4]): continue to have an effect
5 | unspecific antibody LB509 | – | – | – | concentration left after depletion [5]: 11.1 pg/mL; Percent of untreated [6]: 80%
6 | CC(C)C[C@H](NP(=O)(O)O[C@@H]1O[C@@H](C)[C@H](O)[C@@H](O)[C@H]1O)C(=O)N[C@@H](Cc1c[nH]c2ccccc12)C(=O)O [Neprilysin inhibitor, Phosphoramidon disodium salt] | increases | unchanged | increases | –
7 | O=C(Nc1cc(Cl)ccc1O)Nc1cc(C(F)(F)F)ccc1Cl [NS1738] | – | – | – | intracellular Aβx-34 level (THP-1 cells [2]): reduces the amount; also recorded: decreased; intracellular Aβ20-x level (THP-1 cells [4]): continue to have an effect; intracellular Aβx-34 level (THP-1 cells [4]): continue to have an effect; intracellular Aβx-40 level (THP-1 cells [4]): continue to have an effect
